# According to patent publication US20240041853A1, “DOSAGE REGIMEN FOR A NR2B-NMDA RECEPTOR NAM FOR THE TREATMENT OF DEPRESSION” (Novartis AG, priority 2020, published 2024):
# Columns and labels:
# [1] = Garner et al 2015; Pagnozzi et al 1995; Preskorn et al 2008; cited from earlier work
# [2] = tested on: patients with treatment resistant depression (TRD); assay: Phase IIa proof of concept study, efficacy (MADRS, CGI-I); type: in vivo, human
# Procedure: (§1) A multi-center, randomized, subject and investigator blinded, placebo controlled, active comparator, parallel group, proof of concept study to evaluate the efficacy, safety, tolerability, and pharmacokinetics of Compound (I) in patients with treatment resistant depression (TRD). The study included two different active Compound (I) doses of 0.16 mg/kg and 0.32 mg/kg given in two different regiments—weekly and bi-weekly (every other week). The study also included a ketamine arm.
# (§2) Adults with major depressive disorder and prior failure of ≥2 standard antidepressants of adequate dose and >8 weeks duration in a major depressive episode (per DSM-5 criteria) and Montgomery-Åsberg Depression Rating Scale (MADRS) score ≥24 were eligible. Patients were randomized (3:3:3:3:6:4) to one of six treatment arms for 36 days: low dose (0.16 mg/kg) Compound (I) weekly (N=11) or every other week (q2w [N=10]); high dose (0.32 mg/kg) Compound (I) weekly (N=10) or q2w (N=9); placebo (N=20); or ketamine 0.5 mg/kg weekly (N=10). Change in MADRS total score at 24 hours (h) from baseline (primary endpoint), was analyzed using analysis of covariance. Secondary endpoints included change in MADRS score at 48 hours and 6 weeks and clinical global impression-improvement (CGI-I) score at 24 hours, 48 hours and 6 weeks. Safety and tolerability were also assessed.
# [3] = tested on: patients with treatment resistant depression (TRD); assay: Phase IIa proof of concept study, safety and tolerability (adverse events); type: in vivo, human
# Procedure: as §1, §2
# [4] = tested on: patients with unipolar and bipolar depression; conditions: cited from earlier work
compound,measurement,setting,value
"C[C@@H]([C@@H](O)c1ccc(O)cc1)N1CCC(O)(c2ccccc2)CC1 [CP-101,606]",frequency of dissociative adverse events,[1],low frequencies of dissociative adverse events
Oc1ccc([C@@H](O)CN2C[C@H]3C[C@H](Oc4ccccc4F)C[C@H]3C2)nc1 [Compound (I)],time in which efficacy occurred,"[2]; 0.16 mg/kg or 0.32 mg/kg, weekly or every other week",≤ 24 h
same,ΔAM [80% CI] in MADRS score vs placebo,"[2]; Week 6, 0.16 mg/kg q2w, 80% CI [−11.8, −1.15], p=0.059, greatest benefit",−6.46
same,maintenance of efficacy,[2]; after repeated dosing,maintained at 6 weeks
same,CGI-I scores vs placebo,"[2]; at 24 hours, 48 hours and 6 weeks",suggested benefits
same,Adjusted mean difference (ΔAM) in MADRS vs placebo,"[2]; at 24 hours, pooled 0.16 mg/kg, p=0.001",−8.25
same,mean decrease in MADRS score,"[2]; at 24 hours, pooled Compound (I) 0.16 mg/kg group (weekly and q2w)",15.51 points
same,mean decrease in MADRS score,"[2]; at 24 hours, pooled Compound (I) 0.32 mg/kg group (weekly and q2w)",12.98 points
same,Adjusted mean difference (ΔAM) in MADRS vs placebo,"[2]; at 24 hours, second pooled Compound (I) group (dose figure missing in print), p=0.019",−5.71
same,Adjusted mean difference (ΔAM) in MADRS vs placebo,"[2]; at 48 h, pooled 0.16 mg/kg, p=0.013",−7.06
same,Adjusted mean difference (ΔAM) in MADRS vs placebo,"[2]; at 48 h, second pooled Compound (I) group (dose figure missing in print), p=0.013",−7.37
same,efficacy of 0.16 mg/kg compared with 0.32 mg/kg,[2]; each administered once every week or once every other week,as effective as a dose of 0.32 mg/kg
same,improvement in MADRS score vs placebo,"[2]; patients with TRD, overall conclusion",significant improvement
same,Time to both onset and resolution of dissociative AEs and sedation,[3]; in vivo,longer for Compound (I) than for ketamine
same,safety signals,[3]; in vivo,No new safety signals were identified
Cc1ccc(COC(=O)N2CC[C@H](CNc3ncccn3)[C@H](F)C2)cc1 [MK-0657],frequency of dissociative adverse events,[1],low frequencies of dissociative adverse events
CNC1(c2ccccc2Cl)CCCCC1=O (stereo not drawn) [ketamine],Adjusted mean difference (ΔAM) in MADRS vs placebo,"[2]; at 24 hours, ketamine 0.5 mg/kg weekly, p=0.046",−5.67
same,mean decrease in MADRS score,"[2]; at 24 hours, ketamine group, 0.5 mg/kg weekly",12.94 points
same,Adjusted mean difference (ΔAM) in MADRS vs placebo,"[2]; at 48 h, ketamine 0.5 mg/kg weekly, p=0.019",−11.02
same,"Adverse events (AEs), patients",[3]; ketamine 0.5 mg/kg weekly,50%
same,"Dissociative AEs, patients",[3]; ketamine 0.5 mg/kg weekly,50%
same,incidence of sedation,[3]; ketamine 0.5 mg/kg weekly,10%
same,effect on suicidality,"[4]; Katalinic et al 2013, Murrough et al 2015",reduce suicidality
same,antidepressant effects,"[4]; single dose 0.5 mg/kg infused over 40 minutes, 7 patients, Berman et al 2000",rapid antidepressant effects
